Experimental data from patent US11291684B2, “Treatment of glaucoma” (TX MEDIC AB, priority 2017, dated 2022).

How the values were obtained:
[1] = Body weight and activity of rats in glaucoma model; assay type: in vivo, Sprague Dawley rats; conditions: rat; day 28; treated animals gaining less weight
Source text: Measured End-Points • IOP twice weekly throughout study from day 0 to day 28; • Immunohistochemistry for counting RGC that are immunoreactive for brain-specific homeobox/POU domain protein 3A (Brn3a) at day 28 (RGC survival); • Immunohistochemistry for laminin and fibronectin to evaluate scarring in the trabecular meshwork at day 28 in Groups 1 and 2; • Anterior segment and OCT imaging at day 28 to examine the angle and the thickness of the retinal nerve fiber layer comprising RGC axons; and • Body weight at day 28.

Schwann cells = assay: Gene expression (microarray) in cultured Schwann cells; assay type: cell-based, Human
Experimental: n=8×25 cm^2 culture flasks were set up. Two flasks were harvested on the day of treatment (24 hours after seeding). This represents the Day0 time point. From the remaining flasks, three flasks were treated with Control Medium and three were treated with Culture Medium (CM) containing dextran sulfate to give a final concentration of 0.01 mg/ml. Cells from the treated flasks were collected after 48 hours. Therefore the collected data represent (a) untreated cells (Day0 Controls and Day2 Controls) and (b) cells treated with dextran sulfate for 48 hours (Day2 dextran sulfate treated).
25 cm^2 flasks were coated by adding 2 ml per flask of a solution of 50 μg/ml poly-d-lysine in Hank's balanced salt solution (HBSS) and incubating overnight at 37° C. in the dark. Flasks were washed with cell culture water and air-dried for 30 min in the dark. Flasks were coated by adding 1 ml per flask of a solution of 25 μg/ml laminin in phosphate-buffered saline (PBS) and incubating for 2 hour at 37° C. in the dark. The laminin flasks were washed with PBS three times before plating cells.
Schwann cells growth medium was prepared by adding 10% of fetal bovine serum (FBS) to high-glucose DMEM and pre-warmed to 37° C. Cells were thawed in a 37° C. water bath for no longer than 2 min.
Cells from 12 vials were each gently transferred to a tube containing 10 ml of high-glucose DMEM medium and centrifuged at 400 relative centrifugal field (RCF) for 10 min. Pellet was resuspended in culture medium. The cells from the 12 vials were mixed and distributed equally into the previously coated 25 cm^2 flasks (n=8). Cells were incubated at 37° C. with 5% CO2. Cells were allowed to settle for 24 hours before dextran sulfate treatment.
Dextran sulfate (Tikomed AB, Sweden, WO 2016/076780) was provided at a stock concentration of 20 mg/ml and was kept in a temperature monitored refrigerator at 4° C. A fresh 100× dextran sulfate stock (1.0 mg/ml) was prepared in sterile DMEM-F12. The concentrated drug stock was sterile filtered and added to the respective culture media (19.6 ml CM and 0.4 ml dextran sulfate stock solution). The Control was made using 19.6 ml CM and 0.4 ml of DMEM-F12. Dextran sulfate and CM were added to the respective flasks (5 ml each) to reach the 0.01 mg/ml concentration of dextran sulfate in each dish with a total of 10 ml CM each.
CM was aspirated into a clean and labelled 15 ml Falcon tube. The flasks (without culture medium) were placed into the −80° C. freezer for 30 minutes. The CM in the Falcon tubes were spun at 3000×g for 5 minutes. Supernatant was removed and the small pellet was re-suspended in 2.5 ml Trizol:Water (4:1) solution at room temperature (RT, ˜22° C.).
The frozen flasks were removed one-by one from the freezer and the Trizol-Water from the appropriate tubes was moved to the flask. Flasks were left at RT for 5 minutes before the content was aspirated back into the 15 ml Falcon tube (after washing the bottom of the flask with the solution thoroughly). The flasks were inspected under the microscope to ensure full removal of cells. The collected lysates in the 15 ml Falcon tubes were placed into the −80° C. freezer.
Two aliquots of 1 ml lysate was removed from each sample and 200 μl of chloroform was added to each (0.2 ml of chloroform per 1 ml of TRIzol Reagent used during the cell lysis step) and the tube was shaken vigorously. Samples were stored at RT for 2-3 minutes and subsequently centrifuged at 12,000×g for 15 minutes at 4° C.
The RNA was precipitated from the aqueous phase by adding an equal amount of 100% ethanol. The precipitated RNA was fixed onto a Spin Cartridge, washed twice and dried. The RNA was eluted in 50 μl warm RNase-Free Water. The amount and quality of the purified RNA was measured by Nanodrop. The RNA was stored at −80° C. before transfer to Source Bioscience for Array analysis.
The expression data were downloaded into separate files for each cell line. […]

dextran sulfate
body weight difference vs saline treated animals [1]: small but non-significant difference | effect on cell adhesion and movement in Schwann cells (Schwann cells; 0.01 mg/ml, 48 hours): promoted cell detachment and movement | differentially expressed genes (Schwann cells; D0 control vs D2 dextran sulfate treated, 0.01 mg/ml, 48 hours): 1244 genes | differentially expressed genes (Schwann cells; D2 control vs D2 dextran sulfate treated, 0.01 mg/ml, 48 hours): 700 genes | increase in decorin expression, fold change (Schwann cells; Schwann cells, 0.01 mg/ml, 48 hours): 1.242 | genes: abolished nutrient effect (Schwann cells; no effect): 21 | genes: total (Schwann cells; no effect): 21 | genes: abolished nutrient effect (Schwann cells; significant downregulation): 1 | genes: enhanced response to nutrients (Schwann cells; significant downregulation): 122 | genes: new effect induced by dextran sulfate (Schwann cells; significant downregulation): 352 | genes: not different from control (Schwann cells; significant downregulation): 42 | genes: total (Schwann cells; significant downregulation): 517 | genes: abolished nutrient effect (Schwann cells; significant upregulation): 13 | genes: enhanced response to nutrients (Schwann cells; significant upregulation): 441 | genes: new effect induced by dextran sulfate (Schwann cells; significant upregulation): 74 | genes: not different from control (Schwann cells; significant upregulation): 373 | genes: total (Schwann cells; significant upregulation): 901 | genes: abolished nutrient effect (Schwann cells; total): 35 | genes: enhanced response to nutrients (Schwann cells; total): 563 | genes: new effect induced by dextran sulfate (Schwann cells; total): 426 | genes: not different from control (Schwann cells; total): 415 | genes: total (Schwann cells; total): 1439
